Measured values reported in patent US9914730B2, “Azaquinazoline inhibitors of Atypical protein Kinase C” (Ignyta, Inc., priority 2012, dated 2018).

Target: T1, full-length human PKCι (Homo sapiens, UniProt P41743)
T1 construct: Recombinant, full-length human PKCι expressed in Sf21 insect cells is also commercially available; purchased; host or cells: Sf21 insect cells
T1 sequence (P41743 1-596): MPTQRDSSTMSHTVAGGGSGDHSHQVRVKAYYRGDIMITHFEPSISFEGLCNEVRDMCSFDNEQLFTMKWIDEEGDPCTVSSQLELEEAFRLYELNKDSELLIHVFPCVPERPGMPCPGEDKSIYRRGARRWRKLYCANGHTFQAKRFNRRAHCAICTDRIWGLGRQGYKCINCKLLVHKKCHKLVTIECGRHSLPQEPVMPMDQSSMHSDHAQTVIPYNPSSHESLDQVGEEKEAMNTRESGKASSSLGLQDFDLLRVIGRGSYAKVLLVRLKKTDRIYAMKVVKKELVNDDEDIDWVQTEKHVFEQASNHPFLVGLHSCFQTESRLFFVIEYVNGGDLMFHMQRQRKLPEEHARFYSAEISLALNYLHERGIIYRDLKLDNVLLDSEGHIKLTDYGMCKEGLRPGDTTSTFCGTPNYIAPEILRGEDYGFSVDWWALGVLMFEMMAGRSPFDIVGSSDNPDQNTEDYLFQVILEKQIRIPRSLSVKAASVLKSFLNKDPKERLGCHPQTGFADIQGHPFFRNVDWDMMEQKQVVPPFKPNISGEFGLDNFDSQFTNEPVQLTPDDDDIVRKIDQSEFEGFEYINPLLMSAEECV
Experiment: PKCι IC50 IMAP assay, full-length PKCι at 150 μM ATP
Type: biochemical
Settings: read-out: IC50 in IMAP assay against full length PKCi at 150 μM ATP
Summary of the method: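 Phosphorylation of a 5FAM-tagged PKCε pseudopeptide-derived substrate (100 nM) by full-length recombinant human PKCι was monitored by IMAP fluorescence polarisation. ATP was held at 150 μM, five times its apparent KM, with 60 min room-temperature incubation.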

Compound | IC50
COc1cncc2nc(-c3ccnc(Nc4ccc(F)c(F)c4F)c3)nc(N3CCNCC3)c12 [Example 454, [4-(5-Methoxy-4-piperazin-1-yl-pyrido[3,4-d]pyrimidin-2-yl)-pyridin-2-yl]-(2,3,4-trifluoro-phenyl)-amine] | 100 to 1000 nM
COc1cncc2nc(-c3ccnc(Nc4ccc(C#N)cn4)c3)nc(N[C@@H]3CCNC3)c12 [Example 344, 6-{4-[5-Methoxy-4-((R)-pyrrolidin-3-ylamino)-pyrido[3,4-d]pyrimidin-2-yl]-pyridin-2-ylamino}-nicotinonitrile] | < 100 nM
CN1CCN(c2cccc(Nc3cc(-c4nc(N5CCCC5)c5c(C6CC6)cncc5n4)ccn3)c2)CC1 [Example 760, [4-(5-Cyclopropyl-4-pyrrolidin-1-yl-pyrido[3,4-d]pyrimidin-2-yl)-pyridin-2-yl]-[3-(4-methyl-piperazin-1-yl)-phenyl]-amine] | 100 to 1000 nM
FC1(F)CCCC(Nc2cc(-c3nc(N4CCNCC4)c4c(C5CC5)cncc4n3)ccn2)C1 (centres unmarked) [Example 673, [4-(5-Cyclopropyl-4-piperazin-1-yl-pyrido[3,4-d]pyrimidin-2-yl)-pyridin-2-yl]-(3,3-difluoro-cyclohexyl)-amine] | < 100 nM
Fc1cc(-c2nc(N3CCNCC3)c3c(C4CC4)cncc3n2)ccn1 [Example 689, 5-Cyclopropyl-2-(2-fluoro-pyridin-4-yl)-4-piperazin-1-yl-pyrido[3,4-d]pyrimidine] | < 100 nM
CC(Nc1cc(-c2nc(N3CCNCC3)c3c(C4CC4)cncc3n2)ccn1)c1cnn(C)c1 (centres unmarked) [Example 730, [4-(5-Cyclopropyl-4-piperazin-1-yl-pyrido[3,4-d]pyrimidin-2-yl)-pyridin-2-yl]-[1-(1-methyl-1H-pyrazol-4-yl)-ethyl]-amine] | < 100 nM
[4-(5-Cyclopropyl- 4-piperazin-1-yl- pyrido[3,4- d]pyrimidin-2-yl)- pyridin-2-yl]-(4- trifluoromethyl- phenyl)-amine [Example 596] | 10000 to 40000 nM
COc1cncc2nc(-c3ccnc(Nc4cc(C(N)=O)ccn4)c3)nc(N3CCNCC3)c12 [Example 379, 2-[4-(5-Methoxy-4-piperazin-1-yl-pyrido[3,4-d]pyrimidin-2-yl)-pyridin-2-ylamino]-isonicotinamide] | < 100 nM
N#Cc1cccc(Nc2cc(-c3nc(N4CC[C@H](O)[C@H](O)C4)c4c(C5CC5)cncc4n3)ccn2)c1 [Example 711, 3-{4-[5-Cyclopropyl-4-((3R,4S)-3,4-dihydroxy-piperidin-1-yl)-pyrido[3,4-d]pyrimidin-2-yl]-pyridin-2-ylamino}-benzonitrile] | 100 to 1000 nM
c1cc(-c2nc(N3CCNCC3)c3c(C4CCC4)cncc3n2)c2cc(C3CCOC3)[nH]c2n1 (centres unmarked) [Example 2184, 5-Cyclobutyl-4-piperazin-1-yl-2-[2-(tetrahydro-furan-3-yl)-1H-pyrrolo[2,3-b]pyridin-4-yl]-pyrido[3,4-d]pyrimidine] | < 100 nM
C[C@@H](N)CNc1nc(-c2ccncc2)nc2cnccc12 [Example 4, N-[(2R)-2-aminopropyl)-2-(pyridin-4-yl)pyrido[3,4-d]-pyrimidin-4-amine] | 1000 to 10000 nM
CC1(C)CN(c2nc(-c3ccnc(Nc4nc(F)c(C5CC5)cc4F)c3)nc3cncc(C4CC4)c23)CCN1 [Example 2125, (5-Cyclopropyl-3,6-difluoro-pyridin-2-yl)-{4-[5-cyclopropyl-4-(3,3-dimethyl-piperazin-1-yl)-pyrido[3,4-d]pyrimidin-2-yl]-pyridin-2-yl}-amine] | < 100 nM
C[C@H]1CN(c2nc(-c3ccnc(NC4CCN(CC(F)(F)F)CC4)c3)nc3cncc(C4CC4)c23)CCN1 [Example 2049, {4-[5-Cyclopropyl-4-((S)-3-methyl-piperazin-1-yl)-pyrido[3,4-d]pyrimidin-2-yl]-pyridin-2-yl}-[1-(2,2,2-trifluoro-ethyl)-piperidin-4-yl]-amine] | < 100 nM
COc1cncc2nc(-c3ccnc(Nc4ccccc4)c3)nc(N3CCC(O)C(O)C3)c12 (single isomer, unassigned) [Example 456, (3S,4S)-1-[5-Methoxy-2-(2-phenylamino-pyridin-4-yl)-pyrido[3,4-d]pyrimidin-4-yl]-piperidine-3,4-diol or (3R,4R)-1-[5-Methoxy-2-(2-phenylamino-pyridin-4-yl)-pyrido[3,4-d]pyrimidin-4-yl]-piperidine-3,4-diol] | 100 to 1000 nM
CC(C)(C)c1cc2c(-c3nc(N4CCNCC4)c4c(C5CCC5)cncc4n3)ccnc2[nH]1 [Example 2010, 2-(2-tert-Butyl-1H-pyrrolo[2,3-b]pyridin-4-yl)-5-cyclobutyl-4-piperazin-1-yl-pyrido[3,4-d]pyrimidine] | < 100 nM
Fc1ccnc(F)c1Nc1cc(-c2nc(N3CCNCC3)c3c(C4CC4)cncc3n2)ccn1 [Example 670, [4-(5-Cyclopropyl-4-piperazin-1-yl-pyrido[3,4-d]pyrimidin-2-yl)-pyridin-2-yl]-(2,4-difluoro-pyridin-3-yl)-amine] | < 100 nM
Cc1ccc(C(C)C)cc1Nc1cc(-c2nc(N3CCNCC3)c3c(C4CC4)cncc3n2)ccn1 [Example 558, [4-(5-Cyclopropyl-4-piperazin-1-yl-pyrido[3,4-d]pyrimidin-2-yl)-pyridin-2-yl]-(5-isopropyl-2-methyl-phenyl)-amine] | 100 to 1000 nM
C[C@@H]1CN(c2nc(-c3ccnc(Nc4c(F)cccc4F)c3)nc3cncc(C4CC4)c23)C[C@H](C)N1 [Example 843, {4-[5-Cyclopropyl-4-((3R,5S)-3,5-dimethyl-piperazin-1-yl)-pyrido[3,4-d]pyrimidin-2-yl]-pyridin-2-yl}-(2,6-difluoro-phenyl)-amine] | < 100 nM
c1cc(-c2nc(N3CCNCC3)c3c(C4CC4)cncc3n2)cc(N[C@@H]2CCOC2)n1 [Example 509, [4-(5-Cyclopropyl-4-piperazin-1-yl-pyrido[3,4-d]pyrimidin-2-yl)-pyridin-2-yl]-(R)-tetrahydro-furan-3-yl-amine] | < 100 nM
COc1cncc2nc(-c3ccnc(Nc4cc(C#N)ccn4)c3)nc(N3CCC[C@@H](O)C3)c12 [Example 429, 2-{4-[4-((R)-3-Hydroxy-piperidin-1-yl)-5-methoxy-pyrido[3,4-d]pyrimidin-2-yl]-pyridin-2-ylamino}-isonicotinonitrile] | 1000 to 10000 nM
COc1cccc(Nc2cc(-c3nc(N4CCC(O)CC4)c4c(OC)cncc4n3)ccn2)n1 [Example 469, 1-{5-Methoxy-2-[2-(6-methoxy-pyridin-2-ylamino)-pyridin-4-yl]-pyrido[3,4-d]pyrimidin-4-yl}-piperidin-4-ol] | 1000 to 10000 nM
c1cc(-c2nc(N3CCNCC3)c3c(C4CC4)cncc3n2)cc(Nc2ccn3nccc3c2)n1 [Example 564, [4-(5-Cyclopropyl-4-piperazin-1-yl-pyrido[3,4-d]pyrimidin-2-yl)-pyridin-2-yl]-pyrazolo[1,5-a]pyridin-5-yl-amine] | < 100 nM
FC1(c2cc3c(-c4nc(N5CCNCC5)c5c(C6CC6)cncc5n4)ccnc3[nH]2)CC1 [Example 2127, 5-Cyclopropyl-2-[2-(1-fluoro-cyclopropyl)-1H-pyrrolo[2,3-b]pyridin-4-yl]-4-piperazin-1-yl-pyrido[3,4-d]pyrimidine] | < 100 nM
COC[C@H]1CN(c2nc(N3CCOCC3)nc3cncc(OC)c23)CCN1 [Example 1009, 5-Methoxy-4-((R)-3-methoxymethyl-piperazin-1-yl)-2-morpholin-4-yl-pyrido[3,4-d]pyrimidine] | 1000 to 10000 nM
COc1cncc2nc(-c3ccnc(Nc4ccccc4)c3)nc(N3CCC(O)C(O)C3)c12 (single isomer, unassigned) [Example 464, (3S,4R)-1-[5-Methoxy-2-(2-phenylamino-pyridin-4-yl)-pyrido[3,4-d]pyrimidin-4-yl]-piperidine-3,4-diol or (3R,4S)-1-[5-Methoxy-2-(2-phenylamino-pyridin-4-yl)-pyrido[3,4-d]pyrimidin-4-yl]-piperidine-3,4-diol] | 100 to 1000 nM
COc1cncc2nc(-c3ccnc(NC(=O)Cc4cccnc4)c3)nc(N3CCNCC3)c12 [Example 399, N-[4-(5-Methoxy-4-piperazin-1-yl-pyrido[3,4-d]pyrimidin-2-yl)-pyridin-2-yl]-2-pyridin-3-yl-acetamide] | < 100 nM
CN1CCN(C(=O)C2CCN(c3nc(-c4ccnc(Nc5c(F)cccc5F)c4)nc4cncc(C5CC5)c34)CC2)CC1 [Example 735, (1-{5-Cyclopropyl-2-[2-(2,6-difluoro-phenylamino)-pyridin-4-yl]-pyrido[3,4-d]pyrimidin-4-yl}-piperidin-4-yl)-(4-methyl-piperazin-1-yl)-methanone] | 100 to 1000 nM
c1ccc2c(c1)CC[C@@H]2Nc1cc(-c2nc(N3CCNCC3)c3c(C4CC4)cncc3n2)ccn1 [Example 2099, [4-(5-Cyclopropyl-4-piperazin-1-yl-pyrido[3,4-d]pyrimidin-2-yl)-pyridin-2-yl]-(S)-indan-1-yl-amine] | < 100 nM
Fc1cccc2c1[nH]c1nccc(-c3nc(N4CCNCC4)c4c(C5CC5)cncc4n3)c12 [Example 2031, 4-(5-Cyclopropyl-4-piperazin-1-yl-pyrido[3,4-d]pyrimidin-2-yl)-8-fluoro-9H-pyrido[2,3-b]indole] | < 100 nM
